What was measured:
rSol g 2.1 protein [1] = target: T1, rSol g 2.1 protein (Solenopsis geminata, UniProt A0A9E7V488); assay: Fluorescence competitive binding assay (NPN displacement); conditions: 2 µM rSol g 2.1 with 4 µM NPN, ligand 0-4 µM, 50 mM Tris-HCl pH 7.4
T1 sequence (A0A9E7V488 1-119): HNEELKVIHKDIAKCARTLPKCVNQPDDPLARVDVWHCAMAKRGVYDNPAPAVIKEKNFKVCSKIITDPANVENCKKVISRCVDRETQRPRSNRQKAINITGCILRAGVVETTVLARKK
Description: The binding of the endogenous ligands, including decane, undecane dodecane, and tridecane, to rSol g 2.1 protein was measured by a competitive binding assay. In this procedure, 1 mL of rSol g 2.1 protein (2 µM) in 50 mM Tris-HCl (pH 7.4) containing NPN (4 µM) was titrated with each ligand (1 mM in methanol stock) to the final concentrations of 0, 0.125, 0.375, 0.625, 0.875, 1.125, 2, 3, and 4 µM. Additionally, the same concentrations of the blended ligands, which consisted of decane (45%), undecane (36%), dodecane (15%), and tridecane (4%), were used to investigate the blend effect of Sol g 2.1 protein. The resulting isotherms were fitted (GraphPad Prism 9) to both a one-site model and an allosteric model.

Sol i 2 = conditions: cited from earlier work
rSol g 2.1 protein [2] = target: T1, rSol g 2.1 protein; assay: Fluorescence binding assay, NPN titration into rSol g 2.1
Description: The fluorescence binding assay of rSol g 2.1 protein was conducted using the fluorescent probe N-phenyl-1-naphtylamine (NPN). […] The fluorescence intensity was measured on a PTI QuantaMaster fluorometer (Horiba Ltd., Kyoto, Japan) with a 337 nm excitation wavelength and emission scan ranging from 300–500 nm at room temperature in triplicate. To obtain the equilibrium dissociation (Kd) value, the fluorescence intensity at the maximal emission wavelength 400 nm was plotted for each NPN concentration. Data were fitted to a specific allosteric binding model using GraphPad Prism Version 9.0 (GraphPad Software, San Diego, CA, USA). Y = Bmax × X^h/(Kd^h + X^h) was used as an equation in the fitting model, where Bmax is the maximal specific binding in the same unit as Y, X is the NPN concentration (µM), and Y is the fluorescence intensity counts/second. Moreover, h is the Hill slope, which is 1.0 for cases with one site. If there is more than one binding site per protein and there is cooperativity, then h > 1.0, and the graph takes on a sigmoidal appearance.

Row | Structure (SMILES) | Kd (rSol g 2.1 protein [1]) | binding affinity (Sol i 2) | Kd (rSol g 2.1 protein [2]; 2 µM rSol g 2.1, 50 mM Tris-HCl pH 7.4, NPN 0-12 µM, emission 400 nm, specific binding with Hill slope model) | h slope (Hill slope) (rSol g 2.1 protein [2]; same fit as Kd of NPN)
1 | CCCCCCCCCCC [undecane, Undecane] | 0.33 µM | high binding affinity | – | –
2 | C=CC(=C)CC/C=C(\C)CCC=C(C)C [(E)-β-farnesene] | – | high binding affinity | – | –
3 | CCCCCCCCCC [decane, Decane] | 0.32 µM | high binding affinity | – | –
4 | CCCCCCCCCCCC [dodecane, Dodecane] | 0.39 µM | – | – | –
5 | CCCCCCCCCCCCC [tridecane, Tridecane] | 0.38 µM | – | – | –
6 | c1ccc(Nc2cccc3ccccc23)cc1 [NPN, N-phenyl-1-naphtylamine] | – | – | 1.9 ± 0.08 µM | 1.64 ± 0.12
